Converted amounts (≈) assume the structure as drawn. “Also recorded” adds a separate entry of the source. Like-named read-outs stand apart in the source and are kept apart here.
Columns and labels:
[1] = tested on: S. sclerotiorum ascospores; assay: Suppression of spore germination - microtiter plate assay 1; type: cell-based, Sclerotinia sclerotiorum; conditions: for inhibition of ascospore germination: S. sclerotiorum, qualitative; for MIC: Sclerotinia sclerotiorum, read-out: Minimal Inhibitory Concentration (MIC) to totally inhibit spore germination
Method: (§1) To obtain the A. fumigatus conidiospores, the fungus was grown on ME slants for about 2 weeks at 28° C. The F. culmorum and F. oxysporum conidia, the H. annosum basidiospores, the M. canis macroconidia were produced by inoculating fungal plugs on Corn Meal Agar plates (CMA, Difco Ltd.), Hagem Agar plates (5 g glucose, 5 g ME, 0.5 g NH4NO3, 0.5 g KH2PO4, 0.5 g MgSO4×7H2O, 20 g Agar in 1000 ml deionized H2O) and Oat Meal Agar plates (60 g oat meal, 12.5 g Agar in 1000 ml deionized H2O), respectively, for a period of 5 to 10 days at 25° C. Ascospores of S. sclerotiorum were collected during their dispersal from apothecia by entrapping them on the surface of a water agar (12 g Bacto Agar (Difco Ltd)), 1000 ml H2O). Mature spores were then scraped off or washed out from the surface of the agar plates, with 0,5% Bacto Peptone (Difco Ltd) supplemented with 0.01% Tween 80. The P. ultimum sporangia were obtained by. growing the fungus on grass blades (Martin, 1992). The C. albicans stock culture of 1.0×10^6 cfu ml^−1 was prepared from a 24-hours old culture grown on Yeast Malt Agar plates (YM Agar, Difco Ltd) at 37° C. by suspending it in 0.5% Bacto Peptone and adjusting the optical density of this culture to an absorbance of 0.5 at 600 nm. The spore concentration was counted by using a Bürker chamber, and stock spore suspensions were stored at −70 ° C. for further use. The spore concentrations in respective stock suspensions, as well as the spore concentrations and media to culture fungi in a microtiter plate assay, are listed in Table 2 below.
(§2) To follow the activity during purification, HPLC-fractions to be tested were directly collected to 96-well microtiter plates by using a fraction collector (FC 204, Gilson), and mainly the activity to inhibit the germination of F. culmorum conidia and S. sclerotiorum ascospores was tested. […] The solvents were always evaporated, and one hundred μl of spore suspension, suspended in the appropriate media as listed in Table 2, were then distributed into each well. Depending on the fungus tested, the spore germination was monitored after 24 to 96 hours of incubation at 25° C. in darkness except for A. fumigatus and C. albicans which were incubated at 28 ° C. and 37 ° C. Controls were spores suspended in respective culturing media and culturing media only. All tests were done in triplicate and repeated at least twice.
(§3) The activity of haterumalide A, B and E, and of pyrrolnitrin to inhibit the spore germination of A. fumigatus, F. culmorum, F. oxysporum, H. annosum, M. canis, P. ultimum and S. sclerotiorum as well as the inhibition of the C. albicans growth was tested by using the microtiter plate assay 1 described in Example 7. The effect on apothecial formation of S. sclerotiorum sclerotia was assayed by using microtiter plate assay 2 described in Example 7.

M. canis macroconidia = assay: as above; type: cell-based, Microsporum canis var. canis; conditions: Microsporum canis, read-out: Minimal Inhibitory Concentration (MIC) to totally inhibit spore germination
Method: as §1, §2
as §3, with “The effect on apothecial formation of S. sclerotiorum sclerotia was assayed by using microtiter plate assay 2 described in Example 7.” left out

[2] = tested on: S. sclerotiorum sclerotia; assay: Suppression of apothecial formation - microtiter plate assay 2; type: cell-based, Sclerotinia sclerotiorum; conditions: for inhibition of apothecial formation of sclerotia: S. sclerotiorum, qualitative; for MIC: Sclerotinia sclerotiorum
Method: Twenty four-well microtiter plates were used to test the effect of the purified metabolites on apothecial formation in a concentration range between 0.01 μg ml^−1 and 100 μg ml^−1. To obtain respective concentrations of tested metabolites, the appropriate volume out of the respective metabolite stock solutions of 100 μg ml^−1, 10 μg ml^−1 and 1 μg ml^−1, dissolved in acetonitrile, was distributed into the wells and the solvent was then evaporated. Thereupon, the metabolites were dissolved in sterile H2O and one, or in some tests two, preconditioned sclerotia were placed into each well. Tests were done in triplicate and controls were sclerotia placed in sterile water only.
as §3

S. sclerotiorum mycelium = assay: Suppression of S. sclerotiorum mycelial growth, susceptibility test discs on PDA; type: cell-based, Sclerotinia sclerotiorum; conditions: for inhibition of mycelial growth: S. sclerotiorum, qualitative
Method: For testing effects of haterumalide A, halves of surface sterilized and bisected sclerotia were placed in the center PDA plates (9 cm in diameter) to initiate mycelial growth of S. sclerotiorum. The metabolite, at a concentration from 0.05 to 5 μg ml^−1 diluted in MeOH/H2O (1:1), was then spotted directly onto sterile antimicrobial susceptibility test discs (Oxoid Ltd) located at four equidistant places, giving a total of 0.2 to 20 μg ml^−1 compound per one Petri plate. The treatments were performed in triplicate. Zones of inhibition of mycelial growth were measured after 4 days and reduction of mycelial growth was calculated as a percentage of MeOH/H2O controls.

[3] = tested on: A. fumigatus conidiospores; assay: Suppression of spore germination - microtiter plate assay 1; type: cell-based; conditions: Aspergillus fumigatus, read-out: Minimal Inhibitory Concentration (MIC) to totally inhibit spore germination
Method: as §1, §2, §3

F. culmorum conidia = assay: as above; type: cell-based; conditions: Fusarium culmorum, read-out: Minimal Inhibitory Concentration (MIC) to totally inhibit spore germination
Method: as §1, §2, §3

H. annosum basidiospores = assay: as above; type: cell-based; conditions: Heterobasidion annosum, read-out: Minimal Inhibitory Concentration (MIC) to totally inhibit spore germination
Method: as §1, §2, §3

F. oxysporum conidia = assay: as above; type: cell-based; conditions: Fusarium oxysporum, read-out: Minimal Inhibitory Concentration (MIC) to totally inhibit spore germination
Method: as §1, §2, §3

P. ultimum sporangia = assay: as above; type: cell-based; conditions: Globisporangium ultimum, read-out: Minimal Inhibitory Concentration (MIC) to totally inhibit spore germination
Method: as §1, §2, §3

[4] = tested on: three classes of fungi other than Oomycetes; conditions: Strobel et al. (1999); inhibition of mycelial growth; cited from earlier work
[5] = tested on: S. sclerotiorum sclerotia; assay: Viability of recovered sclerotia; type: cell-based, Sclerotinia sclerotiorum
Method: The sclerotia were placed in 100 ml of deionized water for 10 minutes and subsequently. washed with running deionized water for 10 minutes. They were then transferred onto moistened filter paper in sealed Petri dishes and placed under light conditions suitable for induction of apothecial formation. […] These sclerotia were surface disinfected in 70% ethanol for 2 minutes, rinsed in sterile deionized water, bisected, transferred to PDA in Petri dishes, and observed for mycelial growth after 5 days.
All the preparations were prepared in such a way that their relative concentrations corresponded to those of the bacterial culture, i.e. 1.5×10^9 cfu ml^−1 (non-diluted), 0.75×10^9 cfu ml^−1 (diluted 1:1) and 0.375×10^9 cfu ml^−1 (diluted 1:3), and their apothecial suppressive activity was compared to the effect of such bacterial cultures tested simultaneously. Three Petri plates per treatment were used with sclerotia treated with deionized water, 50, 25 and 12, 5% strength TSB and 1, 0.5 and 0.25% methanol (MeOH) in deionized water, as controls. Inclusion of methanol controls reflected residual concentrations of methanol in the ethyl acetate extratct and aqueous phase. The suppression of apothecial formation after the treatment with various culture preparations was transformed to values of apothecia formed per one sclerotium as a percentage of water control. Sclerotia with suppressed apothecial formation were retrieved and their viability was tested as described above (Example 8).

Stellaria media = assay: Foliar spraying of Stellaria media with A 153 culture preparations and haterumalide B; type: in vivo; conditions: Stellaria media 6-8 leaf stage; 4 ml/4 plants/pot; no concentration factor printed
[6] = tested on: green algae (Scenedesmus quadricauda); assay: Growth of green algae in Z8 medium; type: cell-based; conditions: concentrations similar to those used for the Lemna minor test; preliminary
Method: Additionally, the similar method was used to preliminary test the effect of haterumalide B on the growth of green algae (Scenedesmus quadricauda). Evaporated haterumalide B was dissolved in a sterile Z8 medium with the suspension of algae. Tests were performed in duplicate with suspensions of Scenedesmus quadricauda placed in only sterile Z8 medium as controls.

Lemna minor = assay: Differentiation and growth of Lemna minor, 24-well microtiter plates; type: in vivo; conditions: for Number of Lemna minor fronts (leaves) per one microtiter plate well, End of test: 10 fronts at beginning, control 36
Method: Twenty four-well microtiter plates were used to test the effect of the purified haterumalide B on differentiation and growth of Lemna minor in a concentration range between 1 μg ml^−1 and 60 μg ml^−1. To obtain respective concentrations of the tested metabolite, the appropriate volume out of the respective metabolite stock solutions of 100 μg ml^−1 and 10 μg ml^−1, dissolved in acetonitrile, was distributed into the wells, and the solvent was then evaporated. Thereupon, the metabolite was dissolved in a sterile Lemna medium and three Lemna minor plants with 10 fronts were placed into each well. Tests were done in duplicate and controls were Lemna minor plants placed in only Lemna medium.

[7] = read-out: Minimal Inhibitory Concentration (MIC) to totally inhibit apothecial formation of sclerotia, S. sclerotiorum sclerotia

| Compound | inhibition of ascospore germination [1] | MIC [1] [µg/mL] | MIC (M. canis macroconidia) [µg/mL] | inhibition of apothecial formation of sclerotia [2] | MIC [2, 7] [µg/mL] | inhibition of mycelial growth (S. sclerotiorum mycelium) | MIC [3] [µg/mL] | MIC (F. culmorum conidia) [µg/mL] | MIC (H. annosum basidiospores) [µg/mL] | MIC (F. oxysporum conidia) [µg/mL] | MIC (P. ultimum sporangia) [µg/mL] | further results |
| --- | --- | --- | --- | --- | --- | --- | --- | --- | --- | --- | --- | --- |
| C/C1=C/C/C=C(\Cl)CCC2CC(OC(=O)C[C@@H]1O)[C@H]([C@H](O)/C=C(\C)CC(=O)O)O2 (some centres unmarked) [Haterumalide E] | ability to inhibit | 3 (≈ 6.99 µM) | < 75 | ability to inhibit | 0.5 (≈ 1.17 µM) | ability to inhibit | 15 (≈ 35 µM) | 5 (≈ 11.7 µM) | < 50 | 25 (≈ 58.3 µM) | 8 (≈ 18.7 µM) |  |
| O=[N+]([O-])c1c(Cl)cccc1-c1c[nH]cc1Cl [Pyrrolnitrin, pyrrolnitrin, reference compound] |  |  |  |  |  |  |  | 0.06 (≈ 0.233 µM) |  |  |  | MIC ([1]; S. sclerotiorum ascospores): 10 µg/mL (≈ 38.9 µM); MIC (M. canis macroconidia; M. canis): 1 µg/mL (≈ 3.89 µM); MIC ([2]; S. sclerotiorum sclerotia, read-out: Minimal Inhibitory Concentration (MIC) to totally inhibit apothecial formation of sclerotia): < 100 µg/mL; MIC ([3]; A. fumigatus): 3 µg/mL (≈ 11.7 µM); MIC (H. annosum basidiospores; H. annosum): 50 µg/mL (≈ 194 µM); MIC (F. oxysporum conidia; F. oxysporum): 20 µg/mL (≈ 77.8 µM); MIC (P. ultimum sporangia; P. ultimum): < 50 µg/mL |
| CC(=O)O[C@H]1CC(=O)OC2CC(CC/C(Cl)=C/C/C=C\1C)O[C@H]2[C@H]1C=C(C)CC(=O)O1 (some centres unmarked) [Haterumalide X] | ability to inhibit |  |  | ability to inhibit |  | ability to inhibit |  |  |  |  |  |  |
| CC(=O)O[C@H]1CC(=O)OC2CC(CC/C(Cl)=C/C/C=C\1C)O[C@H]2[C@H](O)/C=C(\C)CC(=O)O (some centres unmarked) [Haterumalide A] | ability to inhibit | 0.8 (≈ 1.7 µM) | 15 (≈ 31.9 µM) | ability to inhibit |  | ability to inhibit | 5 (≈ 10.6 µM) | 2 (≈ 4.25 µM) | 35 (≈ 74.3 µM) | 0.8 (≈ 1.7 µM) | 0.4 (≈ 0.849 µM) | activity against three classes of fungi other than Oomycetes [4]: little or no activity; inhibition of mycelial growth of S. sclerotiorum (S. sclerotiorum mycelium; 0.05 to 0.1 μg ml^−1 per disc, 4 days): did not inhibit; mycelial growth of retrieved sclerotia on PDA plates ([5]; sclerotia treated with 10 μg ml^−1): no mycelial growth; apothecial formation of retrieved sclerotia on moistened filter paper ([5]; sclerotia treated with 0.5 and 1 μg ml^−1): produced apothecia; mycelial growth of retrieved sclerotia on PDA plates ([5]; sclerotia treated with 3 and 5 μg ml^−1): produced mycelium; carpogenic germination of retrieved sclerotia ([5]; sclerotia treated with 3 to 10 μg ml^−1): total inhibition |
| C=C(COC(=O)C/C(C)=C/[C@@H](O)[C@@H]1OC2CC/C(Cl)=C/C/C=C(/C)[C@@H](OC(C)=O)CC(=O)OC1C2)C(C)=O (some centres unmarked) [Haterumalide B] | ability to inhibit | 3 (≈ 5.42 µM) | 40 (≈ 72.3 µM) | ability to inhibit | 0.5 (≈ 0.904 µM) | ability to inhibit | 13 (≈ 23.5 µM) | 1 (≈ 1.81 µM) | 20 (≈ 36.2 µM) | 0.8 (≈ 1.45 µM) | 1 (≈ 1.81 µM) | Plants Surviving (Stellaria media): 0.0; Shot Fresh Weight (Stellaria media): 0.1 g; growth of green algae [6]: inhibits the growth; Number of Lemna minor fronts (leaves) per one microtiter plate well, End of test (Lemna minor; 1 μg ml-1): 10; Number of Lemna minor fronts (leaves) per one microtiter plate well, End of test (Lemna minor; 5 μg ml-1): 10; Number of Lemna minor fronts (leaves) per one microtiter plate well, End of test (Lemna minor; 10 μg ml-1): 10; Number of Lemna minor fronts (leaves) per one microtiter plate well, End of test (Lemna minor; 30 μg ml-1): 10; Number of Lemna minor fronts (leaves) per one microtiter plate well, End of test (Lemna minor; 60 μg ml-1): 10; Visible effects on Lemna fronts (Lemna minor; at all tested concentrations (1 to 60 μg ml-1)): fronts impaired and totally; also recorded: chlorotic; differentiation and growth of Lemna minor (Lemna minor; at all tested concentrations (1 to 60 μg ml^−1)): totally inhibited |

From patent publication US20030130121A1, “Novel bacterial isolate and the preparation and use of its active metabolites” (priority 1999, published 2003)
